From patent EP4796540A2, “N-SULFONAMIDE NITROGEN-CONTAINING FUSED HETEROCYCLIC COMPOUND, AND APPLICATION THEREOF” (priority 2023, dated 2025)
Like-named read-outs stand apart in the source and are kept apart here.

Legend:
p53 Y220C mutant = assay: HTRF assay: compounds promoting the binding of p53 Y220C mutant with DNA; format: biochemical; conditions: His-tagged p53 Y220C (94-312), biotin-labeled DNA
Experimental: Homogeneous time-resolved fluorescence (HTRF) assay was used to measure the reactivation effect of compounds on the p53 Y220C mutant. The recombinant His-tagged p53 Y220C (94-312) used for HTRF assays was expressed in E. coli and purified to the purity of 90% through Ni-NTA column. The biotin-labeled DNA used for HTRF assays was synthesized by Pharmaron Inc, with the specific sequence of 5'-[…]-3' .
The binding of recombinant His-tagged p53 Y220C protein and biotin-labeled DNA was measured using fluorescence resonance energy transfer (FRET). For FRET assays, binding between p53 mutants and DNA sequences was measured by detecting the fluorescence of the interaction between an anti-His antibody (Cisbio, 61HI2KLA) conjugated to Eu and d2-conjugated streptavidin (Cisbio, 610SADLF) bound to a biotin-labeled DNA molecule. Compounds were prepared into 2 mM stock solutions and serially diluted into 10 concentrations at a 1:3 ratio in DMSO. Each 200-fold working concentration compound was sequentially diluted to 4-fold working concentration. 4 µL of compound solution was transferred line by line to a 384-well assay plate using Echo, containing 2 replicates per column. 4 µL of p53 solution was added to the assay plate. 4 µL of biotin DNA solution was added to the assay plate, and then 4 µL of assay solution (His-Eu antibody and streptavidin-d2) was added to each well of the assay plate. The assay plate was incubated overnight and protected from light. Fluorescence was read on BMG (BMG LRBTECH).
The ratio of each well was calculated (ratio_665 nm/615 nm-ratio_background). The activity % was calculated as follows: C = (Ave_Ac−Ave_Ba)/(Ave_Dc_Ave_Bd) [formula] R data = (A−Ave_Ba−C*D)/(D−Ave_Bd)*(Ave_Dc−Ave_Bd) [formula] Activity % = R data/Ave_VC*100. [formula] • A: fluorescence intensity of the sample at 665 nm; • D: fluorescence intensity of the sample at 615 nm; • Ba: fluorescence intensity of the plate background at 665 nm; • Bd: fluorescence intensity of the plate background at 615 nm; • Dc: fluorescence intensity of HIS-Eu background at 615 nm; • Ac: fluorescence intensity of streptavidin-d2 background at 665 nm; • VC: DMSO treatment group.
SC150 was calculated using Graphpad 8.0 to fit the logarithm of activity% and compound concentration to a nonlinear regression (dose response-variable slope). Table 1: Activity of compounds promoting the binding of p53 Y220C mutant with DNA

CYP3A4/5 [1] = conditions: human, microsomes, 10 min, 10 µM
Experimental: (§1) Experimental purpose: To test the inhibitory effect of compounds on CYP isoenzymes at a single concentration. • 2. Experimental instrument and reagents:
(§2) 8.71 g of K2HPO4 was dissolved in 950 mL of water. The pH was adjusted to 7.4 with HCl solution. The mixture was adjusted to a final volume of 1000 mL with water. The buffer was filtered through a 0.45 µm filter. The buffer was stored in a refrigerator at 4°C for future use. Terfenadine/tolbutamide (1 mg/mL each) stock solutions were prepared with DMSO. The above stock solution was diluted with acetonitrile to produce a quenching solution containing 5/10 ng/mL (terfenadine/tolbutamide).
(§3) Liver microsomes were thawed in a 37°C water bath prior to use. Liver microsome working solution (final concentration of 0.5 mg/mL) was prepared. 5 mM NADPH working solution was prepared with phosphate buffered saline. The above stock solution was prepared into a 2 mM working solution with DMSO.
(§4) 238.5 µL of liver microsome working solution was added to a 1.1 mL tube. 1.5 µL of test compound/control working solution/DMSO was added and mixed well by pipetting several times. The mixture was pre-incubated in water bath with shaking at 37°C for 5 minutes. After the pre-incubation, 60 µL of NADPH working solution was added and mixed well by pipetting several times. The mixture was incubated in water bath with shaking at 37°C for 10 minutes. Immediately after incubation, 500 µL of quenching solution was added and vortexed for 1 minute. All samples were centrifuged at 4,000 rpm for 15 minutes at 4°C. 300 µL of the above supernatants were aliquoted for further LC-MS/MS analysis.
(§5) Inhibition rate (% inhibition) is calculated using metabolite formation of the test compound or the control compound compared to the matrix control.

CYP3A4/5 [2] = assay: Inhibition of CYP isoenzymes at a single concentration, liver microsomes; conditions: final compound concentration 10 µM; substrate Midazolam; human liver microsomes
Experimental: as §1, §2, §3, §4, §5

CYP3A4/5 enzymes = assay: Multi-concentration inhibitory activity curve of CYP3A4/5 enzymes, liver microsomes; format: in vitro ADME; conditions: substrate Midazolam; human liver microsomes; 10 min
Experimental: Experimental purpose: To determine the concentration inhibitory activity curve of compounds on CYP3A4/5 enzymes. • 2.
as §2
Liver microsomes were thawed in a 37°C water bath prior to use. Liver microsome working solution (final system concentration of 0.5 mg/mL) was prepared. 5 mM NADPH working solution was prepared with phosphate buffered saline. The above stock solution was prepared into a 2 mM working solution with DMSO. The above stock solution was diluted with acetonitrile (4-fold dilution, 6 non-zero concentrations).
238.5 µL of liver microsome working solution was added to a 1.1 mL tube. 1.5 µL of test compound/control working solution/DMSO was added and mixed well by pipetting several times. The mixture was pre-incubated in water bath with shaking at 37°C for 5 minutes. […]
The half-maximal inhibitory concentration (IC50) was calculated using Graph Pad Prism.

COc1nc(C(=O)NS(C)(=O)=O)ccc1NCC#Cc1cc2c(N[C@@H]3CCN(C)C[C@@H]3F)cccn2c1CC(F)(F)F [Cpd-1, 5-((3-(8-(((3S,4R)-3-Fluoro-1-methylpiperidin-4-yl)amino)-3-(2,2,2-trifluoroethyl)indolizin-2-yl)prop-2-yn-1-yl)amino)-6-methoxy-N-(methylsulfonyl)picolinamide]
SC150 (p53 Y220C mutant): 1.0 nM

[2H]C([2H])([2H])Oc1nc(C(=O)NS(=O)(=O)CC(F)(F)F)ccc1NCC#Cc1cc2c(N[C@@H]3CCN(C)C[C@@H]3F)cccn2c1CC(F)(F)F [Cpd-6, 5-((3-(8-(((3S,4R)-3-Fluoro-1-methylpiperidin-4-yl)amino)-3-(2,2,2-trifluoroethyl)indolizin-2-yl)prop-2-yn-1-yl)amino)-6-(methoxy-d3)-N-((2,2,2-trifluoroethyl)sulfonyl)picolinamide]
SC150 (p53 Y220C mutant): 1.7 nM

COc1cc(S(C)(=O)=O)ccc1NCC#Cc1nc2c(N[C@@H]3CCN(C)C[C@@H]3F)cccn2c1CC(F)(F)F [Cpd-B]
Inhibition rate (%) CYP3A4/5 (Midazolam) (CYP3A4/5 [1]): 61% | Inhibition rate (%) CYP3A4/5 (Testosterone) (CYP3A4/5 [1]): 75% | SC150 (p53 Y220C mutant): 15 nM

COc1nc(C(=O)NS(=O)(=O)C2CC2)ccc1NCC#Cc1cc2c(N[C@@H]3CCN(C)C[C@@H]3F)cccn2c1CC(F)(F)F [Cpd-7, N-(Cyclopropylsulfonyl)-5-((3-(8-(((3S,4R)-3-fluoro-1-methylpiperidin-4-yl)amino)-3-(2,2,2-trifluoroethyl)indolizin-2-yl)prop-2-yn-1-yl)amino)-6-methoxypicolinamide]
SC150 (p53 Y220C mutant): 0.64 nM

CNC(=O)c1ccc(NCC#Cc2cc3c(N[C@@H]4CCN(C)C[C@@H]4F)cccn3c2CC(F)(F)F)c(OC)c1 [Cpd-C, 4-((3-(8-(((3S,4R)-3-Fluoro-1-methylpiperidin-4-yl)amino)-3-(2,2,2-trifluoroethyl)indolizin-2-yl)prop-2-yn-1-yl)amino)-3-methoxy-N-methylbenzamide]
Inhibition rate (%) CYP3A4/5 (Midazolam) (CYP3A4/5 [2]): 79% | IC50 (CYP3A4/5 enzymes): 3.8 µM | SC150 (p53 Y220C mutant): 4.6 nM

[2H]C([2H])([2H])Oc1nc(C(=O)NS(=O)(=O)CC2CC2)ccc1NCC#Cc1cc2c(N[C@@H]3CCN(C)C[C@@H]3F)cccn2c1CC(F)(F)F [Cpd-5, N-((Cyclopropylmethyl)sulfonyl)-5-((3-(8-(((3S,4R)-3-fluoro-1-methylpiperidin-4-yl)amino)-3-(2,2,2-trifluoroethyl)indolizin-2-yl)prop-2-yn-1-yl)amino)-6-(methoxy-d3)picolinamide]
SC150 (p53 Y220C mutant): 1.1 nM

COc1nc(C(=O)NS(C)(=O)=O)ncc1NCC#Cc1cc2c(N[C@@H]3CCN(C)C[C@@H]3F)cccn2c1CC(F)(F)F [Cpd-3, 5-((3-(8-(((3S,4R)-3-Fluoro-1-methylpiperidin-4-yl)amino)-3-(2,2,2-trifluoroethyl)indolizin-2-yl)prop-2-yn-1-yl)amino)-4-methoxy-N-(methylsulfonyl)pyrimidine-2-carboxamide]
SC150 (p53 Y220C mutant): 0.74 nM

[2H]C([2H])([2H])Oc1nc(C(=O)NS(=O)(=O)C2CC2)ccc1NCC#Cc1cc2c(N[C@@H]3CCN(C)C[C@@H]3F)cccn2c1CC(F)(F)F [Cpd-4, N-(Cyclopropylsulfonyl)-5-((3-(8-(((3S,4R)-3-fluoro-1-methylpiperidin-4-yl)amino)-3-(2,2,2-trifluoroethyl)indolizin-2-yl)prop-2-yn-1-yl)amino)-6-(methoxy-d3)picolinamide]
SC150 (p53 Y220C mutant): 0.35 nM
